Source: patent EP4722195A1, “PH-SENSITIVE CATIONIC LIPID AND LIPID NANOPARTICLES” (National University Corporation Hokkaido University, priority 2023, dated 2024)

Tests used:
hEPO = hEPO in the serum of mice administered hEPO mRNA-loaded lipid nanoparticles (ELISA); type: in vivo; conditions: Example 29, Fig. 8, 6, 24, and 48 hours after administration, N = 3
Description: Subsequently, each hEPO mRNA-loaded lipid nanoparticle was administered to mice, and blood samples were collected from the tail vein at 6, 24, and 48 hours after administration (N = 3). The collected blood was allowed to stand at room temperature for 90 minutes, followed by centrifugation at 25°C, 1,000 x g for 15 minutes. The supernatant was collected to obtain serum. The hEPO activity in the serum was measured using a commercially available ELISA kit (Human EPO ELISA Kit, Invitrogen). Calibration samples were prepared by serial dilution from 100 mIU/mL to obtain solutions of […], each in a volume of 450 µL. Serum samples were diluted 10- to 10,000-fold to fall within the calibration range. A volume of 100 µL of each calibration sample and serum sample was applied to the plate, followed by the addition of […] of Biotin-Conjugate and incubation at 18 to 25°C for 1 hour. The wells were washed six times, and 100 µL of Streptavidin-HRP was added to each well and incubated at 18 to 25°C for 15 minutes. After another six washes, 100 µL of TMB Substrate Solution was added to each well, and the plate was shielded from light using aluminum foil and incubated at 18 to 25°C for 10 minutes. Finally, 100 µL of Stop Solution was added, and absorbance at 450 nm was measured using a spectrofluorometer (Varioskan Lux, Thermo Fisher Scientific).

liver = test: EGFP expression in liver tissue sections of mice administered EGFP mRNA-loaded lipid nanoparticles (confocal microscopy); type: in vivo, Balb/c mice; conditions: for fluorescence of EGFP in the liver tissues / gene expression in hepatocytes: Example 27, Fig. 6, EGFP mRNA-loaded lipid nanoparticles TxT/DSPC/chol/PEG-DMG=50/3/47/1.5 (mol%), 24 hours post-administration
Description: Subsequently, each EGFP mRNA-loaded lipid nanoparticle was administered to Balb/c mice at a dose of 0.2 mg mRNA/kg. At 23 hours and 50 minutes post-administration, fluorescently labeled lectin (DyLight-649 Lycopersicon (Tomato) Lectin) was intravenously injected via the tail vein at 40 µg/mouse to fluorescently label vascular endothelial cells. At 24 hours after administration of the lipid nanoparticles, the mice were euthanized, and their livers were collected to prepare tissue sections. For nuclear staining, the tissue sections were immersed in a nuclear staining solution (1 µg/mL Hoechst 33342 dissolved in PBS(-)), cooled on ice, and incubated for at least 30 minutes in the dark. The stained tissue sections were then observed using a confocal laser scanning microscope. Subsequently, in the same manner as Example 26, each EGFP mRNA-loaded lipid nanoparticle was administered to Balb/c mice. At 23 hours and 50 minutes post-administration, fluorescently labeled lectin was administered. At 24 hours after administration of the lipid nanoparticles, the mice were euthanized, and their livers were collected to prepare tissue sections. Each tissue section was observed using a confocal laser scanning microscope. In the figure, the upper panels show fluorescence images of EGFP, and the lower panels show fluorescence images of vascular endothelial cells (fluorescently labeled lectin).

transthyretin (TTR) = test: TTR-targeted genome editing in mice, serum TTR (ELISA); type: in vivo, Balb/c mice; conditions: for TTR knockout activity: serum TTR one week after administration, N = 3
Description: Specifically, an RNA solution was first prepared to contain Cas9-mRNA (TriLink, SmoU-modified) and gRNA targeting transthyretin (TTR) at a mass ratio of 1:2 (N/P = 6.0). Using this RNA solution, in the same manner as Example 27, lipid nanoparticles encapsulating Cas9-mRNA and TTR-gRNA (SEQ ID NO: 1) and having a composition of TxT/DSPC/chol/PEG-DMG = 50/3/47/1.5 (mol%) were prepared (lipid nanoparticles for TTR-targeted genome editing). […]
Subsequently, each of the prepared lipid nanoparticles for TTR-targeted genome editing was administered via tail vein injection to female Balb/c mice (4 weeks old) at a dose of 1.5 mg Cas9 mRNA/kg. […] The collected blood was allowed to stand at room temperature for 1 hour, followed by centrifugation at 25°C, 1,000 × g for 15 minutes. The supernatant was collected to obtain serum. The TTR concentration in the serum was measured using a commercially available ELISA kit (Prealbumin ELISA Kit Mouse, Aviva Systems Biology). Calibration samples were prepared by serial dilution from 500 ng/mL to obtain solutions of 250, 125, 62.5, 31.25, and 15.63 ng/mL, each in a volume of 300 µL. Serum samples were diluted 10,000-fold. A volume of 100 µL of each calibration sample and serum sample was applied to the plate and incubated at 25°C for 30 minutes. The wells were washed four times, and 100 µL of Enzyme-Antibody Conjugate was added to each well. The plate was shielded from light using aluminum foil and incubated at 25°C for 20 minutes. After another four washes, 100 µL of TMB Substrate Solution (Aviva Systems Biology) was added to each well, and the plate was shielded from light using aluminum foil and incubated at 25°C for 10 minutes. Finally, 100 µL of Stop Solution (Aviva Systems Biology) was added, and absorbance at 450 nm was measured using a spectrofluorometer (Varioskan Lux, Thermo Fisher Scientific).
Subsequently, the lipid nanoparticles for TTR-targeted genome editing were administered to mice and serum TTR levels (µg/mL) were measured (N = 3) in the same manner as in Example 32, except that a dose of Cas9-mRNA was adjusted to 0.1, 0.3, and 1.0 mg/kg. In the figure, "NT" indicates the measurement result of serum from mice that were not administered lipid nanoparticles.

[1] = Example 32, Fig. 11, 1.5 mg Cas9 mRNA/kg tail vein

| Structure (SMILES) | hEPO concentrations in serum compared to lipid nanoparticles comprising SM-102 (hEPO) | fluorescence of EGFP in the liver tissues (liver) | gene expression in hepatocytes (liver) | TTR knockout activity (transthyretin (TTR); [1]) | GFP expression in cell types of the liver (liver; Example 26, Fig. 5, EGFP mRNA-loaded lipid nanoparticles 50/3/47/1.5 (mol%), 0.2 mg mRNA/kg, 24 hours after administration) | TTR knockout efficiency versus dose (transthyretin (TTR); Example 33, Fig. 12, 0.1, 0.3, and 1.0 mg/kg) | TTR knockout activity (transthyretin (TTR); Example 33, Fig. 12, dose of 0.3 mg RNA/kg) |
| --- | --- | --- | --- | --- | --- | --- | --- |
| CCCCCCC(CCCC)CNC(=O)CCCC(=O)OCC(COC(=O)CCCC(=O)NCC(CCCC)CCCCCC)(COC(=O)CCCC(=O)NCC(CCCC)CCCCCC)NC(=O)CCN1CCCCC1 (stereo not drawn) [TxT-5-5A12β, 2-(((5-((2-butyloctyl)amino)-5-oxopentanoyl)oxy)methyl)-2-(3-(piperidin-1-yl)propanamido)propane-1,3-diyl bis(5-((2-butyloctyl)amino)-5-oxopentanoate)] | clearly higher hEPO concentrations | fluorescence of EGFP was observed | notably high levels of gene expression | exceeding 85% |  |  |  |
| CCCCCCCN(CCCCCCC)C(=O)CCCC(=O)OCC(COC(=O)CCCC(=O)N(CCCCCCC)CCCCCCC)(COC(=O)CCCC(=O)N(CCCCCCC)CCCCCCC)NC(=O)CCN1CCCCC1 [TxT-5-5A14, 2-(((5-(diheptylamino)-5-oxopentanoyl)oxy)methyl)-2-(3-(piperidin-1-yl)propanamido)propane-1,3-diyl bis(5-(diheptylamino)-5-oxopentanoate)] | clearly higher hEPO concentrations | fluorescence of EGFP was observed | notably high levels of gene expression | exceeding 85% | GFP expression was observed not only in hepatocytes but also in vascular endothelial cells | dose-dependent increase in TTR knockout efficiency | no less than 60% |
| CCCCCCCCN(CCCCCCCC)C(=O)CCCC(=O)OCC(COC(=O)CCCC(=O)N(CCCCCCCC)CCCCCCCC)(COC(=O)CCCC(=O)N(CCCCCCCC)CCCCCCCC)NC(=O)CCN1CCCCC1 [TxT-5-5A16, 2-(((5-(dioctylamino)-5-oxopentanoyl)oxy)methyl)-2-(3-(piperidin-1-yl)propanamido)propane-1,3-diyl bis(5-(dioctylamino)-5-oxopentanoate)] |  | not detectable |  |  |  |  |  |
